The term IC90 denotes the concentration at which the effect reaches the 90% level.

Where two headings read alike, the source gives them in different places.

Test [1] relates to K562 (chronic myelogenous leukemia). Nature of the test: Inhibition of tumor cell growth, K562. It counts as cell-based, human. The conditions noted are these: 72 hours. How it is done:
(§1) In order to obtain information about the growth-inhibiting action on tumor cells, the inhibition of the growth of the following human tumor cells was determined: Burkitt's lymphoma (CA 46, ATCC No. CRL 1648), CCRF-CEM (acute lymphoblastic leukemia, ATCC No. CCL 119), K562 (chronic myelogenous leukemia, ATTC No. CCL 243), HeLa (epitheloid cervix carcinoma, ATCC No. CCL 2), MEXF 276L (melanoma), HT-29 (colon adenocarcinoma, ATCC No. HTB 38), KB-3-1 (human oral epidermoid carcinoma, CTCC No. CCL 17), KB-HU hydroxyurea-resistant, multidrug-resistant KB-C1 cells (Akiyama et al, Cell. Mol Genet., 11:117–126, 1985). Burkitt's, CCRF-CEM, HeLa and MEXF 276L cells were grown in RPMI 1640, HT-29 cells in McCoy's 5A medium. The KB cell lines were grown in Dulbecco's modified Eagle's medium (4,5 g glucose/l). To the cultures of KB-C1 cells 1 μg of colchicine/ml, and to the hydroxyurea-resistant KB-HU cells 1 mM hydroxyurea was added every other week. The media were supplemented with 10% fetal calf serum (except Burkitt's lymphoma cells with 15%), 2 mM glutamine, 50 units/ml penicillin and 50 μg/ml streptomycin. Inhibition of growth of HeLa, HT-29, KB and MEXF 276L cells was detected by the SRB-assay (Skehan et al, J. Natl Cancer Inst., 82:1107–1112, 1990). 3,000 - 10,000 cells in 200 μl medium were seeded per well into 96-well plates. Dose-response curves for CCRF-CEM and Burkitt's lymphoma cells were effected by an MTT-assay (Mosman, J. Immunol Methods, 65:55–63, 1983) from Boehringer Mannheim, Mannheim, Germany. Approximately 10,000 cells per 100 μl were seeded in 96-well plates. After an initial incubation of four hours, various substance concentrations were added, and the cells were incubated at 37° C. in a water-saturated atmosphere of 95% air and 5% CO2 for 72 hours. The substances were dissolved in dimethylsulfoxide (DMSO). The concentration of DMSO was 0.5%, and this was not toxic to the cells. Subsequently, the samples were fixed, washed, and the absorption was determined by a microplate reader.

For test [2], the system named is Burkitt's lymphoma (CA 46, ATCC No. CRL 1648). Nature of the test: Inhibition of tumor cell growth, MTT-assay, Burkitt's lymphoma. The format is cell-based, human. A digest of the protocol:
(§2)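 Cells seeded at 3,000–10,000 (or ~10,000) per well in 96-well plates; compounds dissolved in DMSO. After treatment, samples fixed, washed and absorbance read on a microplate reader (SRB or MTT read-out according to the assay).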
A general note: Formazan colour is commonly taken as a measure of viable cells.

The subject of test [3] is HeLa (epitheloid cervix carcinoma). Briefly: Inhibition of tumor cell growth, SRB-assay, HeLa. It counts as cell-based, human. A general note: Sulforhodamine B stains cellular protein and so reports cell mass.
In test [4] the test system is human tumor grafts (cell lines of FIG. 1). Nature of the test: Colony forming assay (two-layer soft agar). It counts as cell-based. The conditions noted are these: for IC50 / IC90 / Mean IC70: mean values of all cell lines tested in FIG. 1, continuous exposure 3 to 6 days. A digest of the protocol: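 Cells from human tumors grown as nude-mouse xenografts, enzyme-dissociated, plated in two-layer soft agar; compounds added one day later, continuous exposure, 6 concentrations in triplicate. Incubated 3-6 days at 37° C, 7% CO2; live colonies stained with iodonitrotetrazolium and counted by image analysis versus solvent controls.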

Test [5] relates to HT-29 (colon adenocarcinoma). Briefly: Inhibition of tumor cell growth, SRB-assay, HT-29. The format is cell-based, human. A digest of the protocol:
as §2

In test [6] the test system is CCRF-CEM (acute lymphoblastic leukemia). Briefly: Inhibition of tumor cell growth, MTT-assay, CCRF-CEM. The format is cell-based, human. Conditions: Table 2, 72 hours.
For test [7], the system named is up to 12 different tumor cells in permeable hoses. Nature of the test: Hollow fibre assay. It counts as in vivo. Conditions: mice implanted with tumor cells in permeable hoses. The procedure: Substances Ib-11 and Ib-24 were also tested in the so-called hollow fibre assay for their anti-tumor activity. For this purpose, mice were implanted with up to 12 different tumor cells in permeable hoses and treated with the compounds according to the invention.

Test [8] relates to MEXF 276L (melanoma). Nature of the test: Inhibition of tumor cell growth, SRB-assay, MEXF 276L. The format is cell-based, human. The conditions noted are these: Table 2, 72 hours, read-out: IC50 MEXF276L. How it is done:
The KB cell lines were grown in Dulbecco's modified Eagle's medium (4,5 g glucose/l). To the cultures of KB-C1 cells 1 μg of colchicine/ml, and to the hydroxyurea-resistant KB-HU cells 1 mM hydroxyurea was added every other week. […] 3,000 - 10,000 cells in 200 μl medium were seeded per well into 96-well plates. […] Approximately 10,000 cells per 100 μl were seeded in 96-well plates. […] The substances were dissolved in dimethylsulfoxide (DMSO). […] Subsequently, the samples were fixed, washed, and the absorption was determined by a microplate reader.

In test [9] the test system is KB-HU hydroxyurea-resistant cells. Nature of the test: Inhibition of tumor cell growth, SRB-assay, KB-HU. Conditions: Table 4, 72 hours, read-out: In vitro-activity against human tumor cell lines, KB-HU. It counts as cell-based, human. How it is done: as §1
In test [10] the test system is KB-3-1 (human oral epidermoid carcinoma). Nature of the test: Inhibition of tumor cell growth, SRB-assay, KB-3-1. The format is cell-based. The conditions noted are these: read-out: In vitro-activity against human tumor cell lines, KB-3-1. How it is done:
as §1

Test [11] has as its system multidrug-resistant KB-C1 cells. Briefly: Inhibition of tumor cell growth, SRB-assay, KB-C1. It counts as cell-based, human. Conditions: read-out: In vitro-activity against human tumor cell lines, KB-C1. How it is done:
as §1

Test [12] has as its system Burkitt's lymphoma cells. Briefly: Apoptosis determination with propium iodide. The format is cell-based, human. Conditions: for induction of apoptosis (in words): tumor cells; for apoptotic cells: twice the IC50 concentrations, 48 hours, non-treated cells 1.7%. How it is done:
In non-treated Burkitt's lymphoma cells, an average of 1.7% are apoptotic. […] The determination of the apoptosis was performed with propium iodide (Nicoletti et al., Rapid and Simple Method for Measuring Thymocyte Apoptosis by Propium Iodine Staining and Flow Cytometry, J. Immunol. Methods, 139, 271–279, 1991).

Setting [13] is: Table 1, 72 hours, read-out: IC50 Burkitts.
Setting [14] is: Table 1, 72 hours, read-out: IC50 HeLa (converted).
[15] abbreviates: Table 1, 72 hours, read-out: IC50 HT-29 (converted).
The mark [16] stands for this setting: Table 2, 72 hours, read-out: IC50 Burkitts.
The mark [17] stands for this setting: Table 2, 72 hours, read-out: IC50 HeLa (converted).
Where [18] appears, read: Table 2, 72 hours, read-out: IC50 HT-29 (converted).
The mark [19] stands for this setting: Table 3, 72 hours, read-out: IC50 Burkitts.
[20] abbreviates: Table 3, 72 hours, read-out: IC50 HeLa (converted).
[21] abbreviates: Table 3, 72 hours, read-out: IC50 HT-29 (converted).

Consider `CCCC(=NNc1nc2ccccc2n1C)c1ccccn1` [Ia-12], for which the IC50 in test [1] (Table 1) is 80 nM; in [2] (setting [13]), 1780 nM; in [3] (setting [14]), 17 nM; in [4] it was 246 nM; in test [5] (setting [15]) it was 16.3 µM. It took 3.74 µM to reach the 90% level in test [4] (IC90). For the same molecule, the “Mean IC70” value in test [4] turned out to be 0.603 µM.

Consider `Cn1c(NN=C(c2ccccn2)C(C)(C)C)nc2ccccc21` [Ia-20], for which the IC50 in [1] (Table 1) is 1680 nM; in test [2] (setting [13]), 8430 nM; in test [3] (setting [14]) it was 530 nM; in [4], 15 nM; in test [5] (setting [15]), > 100 µM. Moreover, it took 0.231 µM to reach the 90% level in test [4] (IC90). Besides, the “Mean IC70” value in test [4] is 0.064 µM.

Take `CC(=NNc1nc2ccccc2[nH]1)c1cnccn1` [Ib-11]: the IC50 in test [6] was 900 nM; in test [2] (setting [16]), 1320 nM; in [3] (setting [17]) it was 1710 nM; in test [5] (setting [18]), 0.71 µM; in test [8] it was 2130 nM. For the same molecule, the “anti-tumor activity in hollow fibre assay” value in test [7] is “exhibit anti-tumor activity”.

Consider `CC(=NNc1nc2ccccc2o1)c1cc2ccccc2cn1` [Ib-24], for which the IC50 in test [6] is 130 nM; in test [2] (setting [16]), 25 nM; in test [3] (setting [17]), 63 nM; in test [5] (setting [18]), 0.23 µM; in [8], 650 nM. The “anti-tumor activity in hollow fibre assay” value in [7] is reported as “exhibit anti-tumor activity”.

`CC(=NNc1nc2ccccc2n1C(C)C)c1ccccn1` [Ic-3]: the IC50 in test [1] (Table 3) is 330 nM; in test [2] (setting [19]), 2140 nM; in [3] (setting [20]) it was 60 nM; in [4], 265 nM; in test [5] (setting [21]) it was 16.1 µM. The molecule also displayed an IC90 in test [4] of 4.3 µM. The “Mean IC70” value in test [4] was found to be 0.750 µM.

`C=CCn1c(NN=C(C)c2ccccn2)nc2ccccc21` [Ic-5]: the IC50 in test [1] (Table 3) is 180 nM; in test [2] (setting [19]), 980 nM; in test [3] (setting [20]), 10 nM; in [4] it was 214 nM; in test [5] (setting [21]), 12.8 µM. In addition, the tumor type selectivity result in [4] (colony forming assay, IC70 pattern, FIG. 1) was “selectivity for colon, breast, ovarian, and uterus tumors”. This molecule came in with an IC90 in test [4] of 3.33 µM. Further, the “Mean IC70” value in test [4] was 0,607 μM.

Take `CC(=NNc1nc2ccccc2n1-c1ccccc1)c1ccccn1` [Ic-7, 1-(2-Pyridyl)-1-ethanone-1-(1-phenyl-1H-benzo[d]imidazol-2-yl)-hydrazone]: the IC50 is 700 nM in test [1] (Homo sapiens, K562, Table 3); 3480 nM in [2] (Homo sapiens, CA46, Table 3, 72 hours, read-out: IC50 Burkitts); 50 nM in test [3] (Homo sapiens, HeLa, Table 3, 72 hours, read-out: IC50 HeLa (converted)); 760 nM in test [4] (Homo sapiens); 0.1 µM in test [5] (Homo sapiens, HT-29, Table 3, 72 hours, read-out: IC50 HT-29 (converted)). In test [4] (Homo sapiens), it took 6.3 µM to reach the 90% level (IC90). Besides, the “Mean IC70” value in test [4] turned out to be 1.741 µM.

On to `CC(=NNc1nc2ccccc2n1C)c1cc(N(C)C)ccn1` [Id-12], for which the IC50 in [9] amounted to 0.05 µM; in test [10] (Table 4, 72 hours) it was 2.28 µM; in test [11] (Table 4, 72 hours), 810 nM; in test [2] (Table 4, 72 hours, read-out: In vitro-activity against human tumor cell lines, Burkitts), 2210 nM; in [3] (Table 4, 72 hours, read-out: In vitro-activity against human tumor cell lines, HeLa), 3740 nM; in test [5] (Table 4, 72 hours, read-out: In vitro-activity against human tumor cell lines, HT-29) it was 5.07 µM. Besides, in [12], the “induction of apoptosis (in words)” value is reported as “capable of inducing apoptosis”. The apoptotic cells in test [12] was 60%.

`CC(=NNc1nc2ccccc2n1C)c1cccc(-c2ccccc2)n1` [Id-17, 1-(6-Phenyl-2-pyridyl)-1-ethanone-1-(1-methyl-1H-benzo[d]imidazol-2-yl)-hydrazone]: the IC50 in [9] (Homo sapiens) was 9.94 µM; in test [10] (Homo sapiens, KB 3-1, Table 4, 72 hours), 3.85 µM; in [11] (Homo sapiens, KBC-1, Table 4, 72 hours), 3080 nM; in [2] (Homo sapiens, CA46, Table 4, 72 hours, read-out: In vitro-activity against human tumor cell lines, Burkitts), 1450 nM; in test [3] (Homo sapiens, HeLa, Table 4, 72 hours, read-out: In vitro-activity against human tumor cell lines, HeLa), 2350 nM; in [5] (Homo sapiens, HT-29, Table 4, 72 hours, read-out: In vitro-activity against human tumor cell lines, HT-29), 3.36 µM. In [12], the “induction of apoptosis (in words)” value is listed as “capable of inducing apoptosis”. The same molecule yielded an apoptotic cells in test [12] of 85%.

Molecule `NC(=O)NO` [hydroxyurea, reference compound] displayed an apoptotic cells in test [12] of 7.3%. Further, the “in vitro anti-tumor activity against human cancer cells (in words)” value in test [4] (colony forming assay, Table 5 / FIG. 1) is reported as “far lower than that of the compounds according to the invention”.

Values taken from patent US7112680B2, “Heterocyclic hydrazones for use as anti-cancer agents” (Austria Wirtschaftsservice Gesellschaft MIT Beschrankter …, priority 2000, dated 2006).
